According to patent US20220213060A1, “Crystal Form of Quinazolinone Compound and Preparation Method Therefor” (Luoxin Healthcare Science and Technology Development …, priority 2019, published 2022):
Read-outs that look alike come from different tables or passages of the source.

Tests used:
[1] = Sprague Dawley (SD) rat absorption test (pharmacokinetics); assay type: in vivo, SD rats; details: for C0 / Tmax / bioavailability / Tmax at 7 days / Vd / AUC(0-t) / clearance / half-life / Cmax / half-life at 7 days: Sprague-Dawley, rat, plasma; for AUC0-last / t1/2: listed as crystal form A of the compound represented by formula (I); for Vd: read-out: Vdss
Protocol: SD rats were given the crystal form A of the compound represented by formula (I) by single or multiple oral gavage and single intravenous injection respectively, with 6 rats in each group, half male and half female. According to the results of pharmacodynamic and toxicological experiments, the single oral gavage doses were 3, 10 and 30 mg/kg respectively; the multiple doses were 10 mg/kg, once a day for 7 consecutive days; the single intravenous dose was 1 mg/kg. According to the drug plasma concentration-time curve, the pharmacokinetic parameters were calculated. In this experiment, SD rats were provided by Beijing Vital River Experimental Animal Technology Co., Ltd., and were divided into 4 groups (3/sex/group) according to their similar weight. The vehicle for the intravenous group was 5% HP-betaCD/5% Solutol aqueous solution (pH=8); the vehicle for the oral group was 0.5% MC/0.2% Tw80 aqueous solution. Plasma samples were collected by jugular vein puncture in rats.

PI3Kβ = biological target: T1, PI3Kβ (Homo sapiens, UniProt P42338); experiment: In vitro enzymatic activity test (ADP-Glo lipid kinase), PI3Kβ; assay type: biochemical; details: inhibitory activity against PI3Kα relative to PI3Kβ
T1 construct: purchased Promega V1751
Protocol: The lipid kinase reaction was carried out in a suitable substrate and under ATP conditions, then the activity of the kinase was detected by ADP-Glo™ kit in two steps. Step 1: the kinase reaction was terminated, in which the residual ATP was completely removed and only ADP was retained; step 2: kinase detection reagent was added to convert ADP to ATP, accompanied by fluorescein/luciferase reaction. Finally, the fluorescence value output was converted into kinase activity.
Experimental Materials and Equipment:
2) Kit: ADP-Glo™ lipid kinase and PIP2:3PS kit (Promega #V1792)
The reagent kit contains: 1 mM PIP2:3PS, 10× lipid dilution buffer, 1 M magnesium chloride, 10 mM ATP, 10 mM ADP, ADP-Glo reagent, detection buffer and detection substrate.
3) Reaction plate: OptiPlate-384, white and transparent (PerkinElmer #6007299)
1) 10× reaction buffer: 500 mM HEPES, pH 7.5, 500 mM NaCl, […]; BSA: 10% stock solution, self-made
2) Final test system conditions: 1× reaction system: 50 mM of HEPES, 50 mM of NaCl, 3 mM of MgCl2, 0.01% BSA (freshly prepared on the day of experiment), 1% DMSO (v/v)+/−compound
3) Reaction system: 3 μL of mixture of enzyme and substrate (1:1)+2 μL of ATP/MgCl2 mixture+5 μL of ADP-Glo reagent+10 μL of detection reagent.
The specific experimental operations were as follows: […]
(16) Fluorescence values were measured on the Envision instrument.

[2] = PK test of plasma on the last day of administration in the BT-474 xenograft study; assay type: in vivo, BALB/c nude mice; details: BT-474 tumor-bearing nude mice
Protocol: 0.5-1 hours after administration, the blood concentration reached the peak. The plasma exposure at the dose to play the effect was 69 300 nM*h.

[3] = female SD rats, oral, 3 mg/kg, single
[4] = male SD rats, oral, 3 mg/kg, single
[5] = female SD rats, vein, 1 mg/kg, single
[6] = female, iv, 1 mg/kg, female SD rats, vein, single
[7] = female, po, 3 mg/kg, female SD rats, single
[8] = female, po, 10 mg/kg, female SD rats, oral, 10 mg/kg once a day, Day 7
[9] = female, po, 10 mg/kg, female SD rats, oral, 10 mg/kg, Day 1
[10] = female, po, 30 mg/kg, female SD rats, single
[11] = male SD rats, vein, 1 mg/kg, single
[12] = male, iv, 1 mg/kg, male SD rats, vein, single
[13] = male, po, 3 mg/kg, male SD rats, single
[14] = male, po, 10 mg/kg, male SD rats, oral, 10 mg/kg once a day, Day 7
[15] = male, po, 10 mg/kg, male SD rats, oral, 10 mg/kg, Day 1
[16] = male, po, 30 mg/kg, male SD rats, single

T1 sequence (P42338 whole entry): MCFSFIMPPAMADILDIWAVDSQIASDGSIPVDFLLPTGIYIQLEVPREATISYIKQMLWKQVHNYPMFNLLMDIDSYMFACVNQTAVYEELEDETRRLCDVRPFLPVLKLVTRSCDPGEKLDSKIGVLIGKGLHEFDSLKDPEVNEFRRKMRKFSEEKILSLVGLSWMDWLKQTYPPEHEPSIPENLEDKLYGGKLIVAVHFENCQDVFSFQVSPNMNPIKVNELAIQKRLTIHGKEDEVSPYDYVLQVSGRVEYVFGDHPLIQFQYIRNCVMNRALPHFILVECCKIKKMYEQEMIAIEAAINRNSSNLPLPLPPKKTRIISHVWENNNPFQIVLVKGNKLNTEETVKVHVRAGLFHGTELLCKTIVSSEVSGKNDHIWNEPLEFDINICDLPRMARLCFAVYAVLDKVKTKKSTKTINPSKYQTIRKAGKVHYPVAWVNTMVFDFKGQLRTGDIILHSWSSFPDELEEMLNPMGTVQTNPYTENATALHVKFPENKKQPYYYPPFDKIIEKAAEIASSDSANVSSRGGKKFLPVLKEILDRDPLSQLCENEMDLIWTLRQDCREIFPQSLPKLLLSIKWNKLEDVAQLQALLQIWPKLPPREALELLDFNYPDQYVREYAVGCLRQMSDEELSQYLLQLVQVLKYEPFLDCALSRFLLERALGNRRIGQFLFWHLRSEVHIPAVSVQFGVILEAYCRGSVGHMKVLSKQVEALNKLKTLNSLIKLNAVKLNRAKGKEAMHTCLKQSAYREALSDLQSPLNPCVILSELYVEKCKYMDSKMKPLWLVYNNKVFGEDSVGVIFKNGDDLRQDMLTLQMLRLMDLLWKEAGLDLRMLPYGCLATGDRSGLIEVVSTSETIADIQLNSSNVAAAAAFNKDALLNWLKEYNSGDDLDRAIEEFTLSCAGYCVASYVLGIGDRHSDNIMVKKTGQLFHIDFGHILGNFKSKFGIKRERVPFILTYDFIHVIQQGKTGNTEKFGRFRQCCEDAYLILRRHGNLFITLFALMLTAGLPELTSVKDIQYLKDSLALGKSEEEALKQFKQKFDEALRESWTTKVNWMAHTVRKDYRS
T1 sequence (P27986 whole entry partner): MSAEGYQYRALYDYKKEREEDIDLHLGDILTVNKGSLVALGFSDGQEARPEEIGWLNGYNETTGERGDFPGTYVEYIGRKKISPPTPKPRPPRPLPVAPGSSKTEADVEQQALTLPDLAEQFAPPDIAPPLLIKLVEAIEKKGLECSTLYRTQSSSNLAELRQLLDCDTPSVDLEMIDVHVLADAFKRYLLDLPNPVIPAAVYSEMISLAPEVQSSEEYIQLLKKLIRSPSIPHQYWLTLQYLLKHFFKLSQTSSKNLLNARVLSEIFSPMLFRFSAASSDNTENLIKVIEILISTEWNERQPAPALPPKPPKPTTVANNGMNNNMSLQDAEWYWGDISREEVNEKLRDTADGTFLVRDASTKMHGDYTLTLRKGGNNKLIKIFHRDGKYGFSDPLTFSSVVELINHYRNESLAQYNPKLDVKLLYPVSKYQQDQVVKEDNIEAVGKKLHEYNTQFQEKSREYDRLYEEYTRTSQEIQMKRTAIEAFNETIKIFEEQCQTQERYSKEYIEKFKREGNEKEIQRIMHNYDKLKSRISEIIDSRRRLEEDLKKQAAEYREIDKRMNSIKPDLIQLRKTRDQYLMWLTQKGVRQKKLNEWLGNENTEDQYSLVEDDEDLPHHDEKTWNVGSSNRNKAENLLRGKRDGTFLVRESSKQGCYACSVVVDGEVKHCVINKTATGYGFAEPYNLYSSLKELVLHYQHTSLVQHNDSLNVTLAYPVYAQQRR

C0 ([1]; iv, female SD rats, vein, 1 mg/kg, single): 14.2 µM
C0 ([1]; iv, male SD rats, vein, 1 mg/kg, single): 12.7 µM
Tmax [1, 3]: 0.5 h
bioavailability [1, 3]: 53.1%
Tmax at 7 days ([1]; female SD rats, oral, 10 mg/kg once a day, Day 7): 0.5 h
Tmax ([1]; female SD rats, oral, 10 mg/kg, Day 1): 0.667 ± 0.289 h
Tmax ([1]; female SD rats, oral, 30 mg/kg, single): 0.5 h
Tmax [1, 4]: 0.417 ± 0.144 h
bioavailability [1, 4]: 34.7%
Tmax at 7 days ([1]; male SD rats, oral, 10 mg/kg once a day, Day 7): 0.667 h
Tmax ([1]; male SD rats, oral, 10 mg/kg, Day 1): 0.5 h
Tmax ([1]; male SD rats, oral, 30 mg/kg, single): 0.667 ± 0.289 h
AUC0-last [1, 5]: 17.4 µM·h
t1/2 [1, 5]: 3.26 h
Vd ([1]; female, iv, 1 mg/kg, female SD rats, vein, 1 mg/kg, single): 0.257 ± 0.0227 L/kg
AUC(0-t) [1, 6]: 9.89 ± 1.41 µM·h
clearance [1, 6]: 3.12 ± 0.431 mL/min/kg
half-life [1, 6]: 1.63 ± 0.809 h
AUC(0-t) [1, 7]: 27.7 ± 8.72 µM·h
Cmax [1, 7]: 6.39 ± 1.71 µM
half-life [1, 7]: 2.71 h
AUC(0-t) [1, 8]: 86 ± 19.9 µM·h
Cmax [1, 8]: 20.5 ± 4.6 µM
half-life at 7 days [1, 8]: 3.74 h
AUC(0-t) [1, 9]: 60.9 ± 10.9 µM·h
Cmax [1, 9]: 12.1 ± 3.69 µM
half-life [1, 9]: 2.92 h
AUC(0-t) [1, 10]: 177 ± 48 µM·h
Cmax [1, 10]: 39.1 µM
half-life [1, 10]: 2.72 h
AUC0-last [1, 11]: 9.89 µM·h
t1/2 [1, 11]: 1.63 h
Vd ([1]; male, iv, 1 mg/kg, male SD rats, vein, 1 mg/kg, single): 0.265 ± 0.05 L/kg
AUC(0-t) [1, 12]: 17.4 ± 4.79 µM·h
clearance [1, 12]: 1.79 ± 0.457 mL/min/kg
half-life [1, 12]: 3.26 ± 1.13 h
AUC(0-t) [1, 13]: 10.3 ± 4.6 µM·h
Cmax [1, 13]: 4.77 ± 1.01 µM
half-life [1, 13]: 2.26 h
AUC(0-t) [1, 14]: 48.5 ± 4.64 µM·h
Cmax [1, 14]: 13.9 ± 1.61 µM
half-life at 7 days [1, 14]: 3.95 h
AUC(0-t) [1, 15]: 23.7 ± 0.721 µM·h
Cmax [1, 15]: 6.8 ± 0.583 µM
half-life [1, 15]: 2.49 h
AUC(0-t) [1, 16]: 45.3 ± 10.9 µM·h
Cmax [1, 16]: 14.5 ± 4.73 µM
half-life [1, 16]: 2.61 h
Selectivity PI3Kα/β (kinase) (PI3Kβ): 149 times
Plasma exposure at the dose to play the effect ([2]; oral 10 mg/kg, last day of administration): 69 300 nM*h
Plasma exposure with the increase of administration dose ([2]; oral 10, 20, 40 mg/kg): increased linearly
Time after administration at which the blood concentration reached the peak ([2]; oral, last day of administration): 0.5 to 1 h
Structure (SMILES): CNC(=O)[C@H](C)Cn1cnc2ccc(-c3cnc(OC)c(NS(=O)(=O)c4ccc(F)cc4F)c3)cc2c1=O
